In publication PMC12587552, “A nitrogen-containing diphyllin derivative C156-P1 exhibited broad-spectrum antiviral activity against Flaviviridae viruses by preventing endosomal acidification” (Antimicrobial Agents and Chemotherapy, 2025):
pEC50: −log10 of the molar value. Like-named read-outs stand apart in the source and are kept apart here.

Columns and labels:
ZIKV = assay: microbe, parasite or virus in culture; type: cell-based, ZIKV strain SZ01; details: Zika virus, read-out: EC50 against ZIKV
ZIKV, JEV, and YFV = assay: organism not typed; type: cell-based; details: read-out: EC50 against ZIKV, JEV, and YFV, bound stated
ATP6V0A2 = ATP6V0A2 mRNA level by RT-qPCR; type: cell-based, human
IFN-I response / TLR3 = type: cell-based, human; details: A549 cells, DENV-2 MOI = 2, 50 nM, 12-48 hpi
Protocol: Fig 6 C156-P1 restricted DENV-2 release from the endosome into the cytoplasm by suppressing the ATP6V0A2 protein. (A and C) A549 cells were infected with DENV-2 (MOI = 2) and treated with C156-P1 (50 nM), and the cells were harvested at 12, 24, 36, and 48 hpi. The mRNA levels of IFNB1, IFIT1, ISG15, OAS1, and TLR3 were quantitated by RT-qPCR. (B) A549 cells were infected with DENV-2 (MOI = 2) and incubated with C156-P1 (50 nM) for 24 h, after which the cell lysates were analyzed by Western blot (left panel), and band density analysis was performed (right panel). […] The intensity of FITC staining was determined using a CytoFLEX flow cytometer (left panel), and the mean fluorescence intensity (MFI) was calculated (right panel). […] The colocalization of E and Rab7A proteins was analyzed using Pearson’s correlation coefficients with the JACoP plugin for ImageJ software. […] (F) A549 cells were treated with DMSO, C156-P1 (100 nM), or PHY34 (100 nM) for 48 h, and ATP6V0A2 mRNA levels were quantified by RT-qPCR. […] The intensity of FITC staining was determined by a flow cytometer (left panel), and the MFI was calculated (right panel). […] The DENV-2 NS3 protein was determined by Western blot. […] The levels of ATP6V0A2 mRNA, intracellular viral RNA, DENV-2 NS3 protein, and extracellular virus titer were assessed at 48 hpi. […]

COc1cc2c(OCC#N)c3c(c(-c4ccc5c(c4)OCO5)c2cc1OC)C(=O)OC3 [Compound C156-P1]
pEC50 (ZIKV; A549, 48 h): 9.00 | pEC50 (ZIKV; Vero, 48 h): 9.12 | pEC50 (ZIKV, JEV, and YFV): > 8.22 | ATP6V0A2 mRNA expression (ATP6V0A2): decrease in ATP6V0A2 mRNA expression | TLR3 mRNA expression induced by DENV-2 (IFN-I response / TLR3): significantly reduced the expression of TLR3 mRNA | mRNA levels of IFNB1 and ISGs (IFIT1, ISG15, OAS1) induced by DENV-2 (IFN-I response / TLR3): apparently suppressed
